Like-named read-outs stand apart in the source and are kept apart here.
Tests used:
[1] = MTT safety assay, non-cancerous Vero cells; assay type: cell-based; conditions: African green monkey, mean ± SEM of three independent experiments, read-out: In vitro Cytotoxicity IC50 (µM) Vero
Procedure: The cell line (Vero) was obtained from ATCC via Holding company for biological products and vaccines
(VACSERA) , Cairo, Egypt.
The different cell line mentioned above were used to determine the inhibitory effects of compounds on c ell growth using the MTT assay. This colorimetric assay is based on the conversion of the yellow tetrazolium
bromide (MTT) to a purple formazan derivative by mitochondrial succinate dehydrogenase in viable cells.
Antibiotics added were 100
units/ml penicillin and 100µg/ml streptomycin at 37 C in a 5% Co2 incubator. The cellswere seedesin a 96-
well plate at a density of 1.0x10^4 cells/well.at 37 C for 48 h under 5% Co2. After incubation the cells were treated with different concentration of compounds and incubated for 24 h. After 24 h of drug treatment, 20 µl
of MTT solution at 5mg/ml was added and incubated for 4 h. Dimethyl sulfoxide(DMSO) in volume of 100µl
is added into each well to dissolve the purple formazan formed. The colorimetric assay is measured and
The relative cell viability in percentage
was calculated as (A570 of treated samples/A570 of untreated sample) X 100.

MCF-7 cells = experiment: MTT cytotoxicity, MCF-7; conditions: for IC50: read-out: In vitro Cytotoxicity IC50 (µM) MCF-7, mean ± SEM of three independent experiments; for Average of Relative viability of cells (%) MCF-7: 24 h
Procedure: (§1) The cell lines mentioned above were used to determine the inhibitory effects of compounds on cell growth
(§2) using the MTT assay. This colorimetric assay is based on the conversion of the yellow tetrazolium bromide (MTT) to a purple formazan derivative by mitochondrial succinate dehydrogenase in viable cells. Cell lines
(§3) Antibiotics added were 100 units/ml penicillin and 100µg/ml streptomycin at 37 C in a 5% Co2 incubator. The cell lines were seedesin a 96-well
(§4) plate at a density of 1.0x10^4 cells/well. at 37 C for 48 h under 5% Co2. After incubation the cells were treated
(§5) with different concentration of compounds and incubated for 24 h. After 24 h of drug treatment, 20 µl of MTT solution at 5mg/ml was added and incubated for 4 h. Dimethyl sulfoxide (DMSO) in volume of 100 µl is
(§6) added into each well to dissolve the purple formazan formed. The colorimetric assay is measured and recorded
(§7) The relative cell viability in percentage was
(§8) calculated as (A570 of treated samples/A570 of untreated sample) X 100.

MDA-MB-231 cells [2] = experiment: MTT cytotoxicity, MDA-MB-231; conditions: for IC50: read-out: In vitro Cytotoxicity IC50 (µM) MDA-231, mean ± SEM of three independent experiments; for Average of Relative viability of cells (%) MDA-231: 24 h
Procedure: as §1, §2, §3, §4, §5, §6, §7, §8

EGFR [3] = biological target: T1, EGFR (Homo sapiens, UniProt P00533); experiment: In vitro EGFR inhibition (EGFR Kinase Assay Kit, BPS Bioscience); assay type: biochemical; conditions: mean ± SEM of three independent experiments
T1 construct: purchased BPS Bioscience, USA
T1 sequence (P00533 25-1210): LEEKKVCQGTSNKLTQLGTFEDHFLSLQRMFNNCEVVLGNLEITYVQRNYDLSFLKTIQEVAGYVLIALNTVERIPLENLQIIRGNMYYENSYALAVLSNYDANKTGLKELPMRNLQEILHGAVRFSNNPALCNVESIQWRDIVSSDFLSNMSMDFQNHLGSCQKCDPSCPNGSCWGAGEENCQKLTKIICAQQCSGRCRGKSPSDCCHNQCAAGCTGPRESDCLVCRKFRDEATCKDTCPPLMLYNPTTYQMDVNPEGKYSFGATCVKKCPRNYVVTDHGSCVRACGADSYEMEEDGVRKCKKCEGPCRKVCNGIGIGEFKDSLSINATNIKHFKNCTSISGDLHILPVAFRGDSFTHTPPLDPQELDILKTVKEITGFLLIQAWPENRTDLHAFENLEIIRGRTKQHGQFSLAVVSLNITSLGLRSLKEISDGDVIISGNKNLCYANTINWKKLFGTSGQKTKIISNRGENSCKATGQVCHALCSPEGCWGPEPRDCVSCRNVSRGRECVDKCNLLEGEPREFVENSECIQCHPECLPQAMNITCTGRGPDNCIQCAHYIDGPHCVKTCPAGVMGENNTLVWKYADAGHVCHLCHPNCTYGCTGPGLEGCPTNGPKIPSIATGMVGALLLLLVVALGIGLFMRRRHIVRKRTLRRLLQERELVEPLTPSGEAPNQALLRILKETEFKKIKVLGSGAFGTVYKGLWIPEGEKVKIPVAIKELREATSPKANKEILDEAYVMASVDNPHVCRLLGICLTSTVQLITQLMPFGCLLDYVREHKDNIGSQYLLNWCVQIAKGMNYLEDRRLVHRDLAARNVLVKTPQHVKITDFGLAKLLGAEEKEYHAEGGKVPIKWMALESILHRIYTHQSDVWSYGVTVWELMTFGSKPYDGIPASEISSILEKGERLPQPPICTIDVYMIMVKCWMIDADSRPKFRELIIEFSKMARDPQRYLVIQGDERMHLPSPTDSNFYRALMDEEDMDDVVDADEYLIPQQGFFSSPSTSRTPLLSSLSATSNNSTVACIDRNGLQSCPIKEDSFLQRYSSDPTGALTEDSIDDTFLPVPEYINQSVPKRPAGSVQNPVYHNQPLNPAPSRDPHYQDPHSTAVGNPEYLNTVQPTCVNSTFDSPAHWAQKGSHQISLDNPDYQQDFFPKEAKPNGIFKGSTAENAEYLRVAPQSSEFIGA
Procedure: (§9) • The in vitro inhibitory activity of the tested compounds against EGFR was accomplished using EGFR
(§10) Kinase Assay Kit (BPS Bioscience, USA) at different dilutions of 1000, 300, 100, 30, 10, 3, 1, and 0.3 nM.
In vitro carbonic anhydrase inhibition

hCA_IX = biological target: T2, hCA_IX (Homo sapiens, UniProt Q16790); experiment: In vitro carbonic anhydrase (IX) inhibition (assay kit, BPS Bioscience); assay type: biochemical; conditions: mean ± SEM of three independent experiments
T2 construct: purchased BPS Bioscience, USA
Procedure: as §9, §10
In vitro carbonic anhydrase inhibition

hCA_XII = biological target: T3, hCA_XII (Homo sapiens, UniProt O43570); experiment: In vitro carbonic anhydrase (XII) inhibition (assay kit, BPS Bioscience); assay type: biochemical; conditions: mean ± SEM of three independent experiments
T3 construct: purchased BPS Bioscience, USA
T3 sequence (O43570 25-354): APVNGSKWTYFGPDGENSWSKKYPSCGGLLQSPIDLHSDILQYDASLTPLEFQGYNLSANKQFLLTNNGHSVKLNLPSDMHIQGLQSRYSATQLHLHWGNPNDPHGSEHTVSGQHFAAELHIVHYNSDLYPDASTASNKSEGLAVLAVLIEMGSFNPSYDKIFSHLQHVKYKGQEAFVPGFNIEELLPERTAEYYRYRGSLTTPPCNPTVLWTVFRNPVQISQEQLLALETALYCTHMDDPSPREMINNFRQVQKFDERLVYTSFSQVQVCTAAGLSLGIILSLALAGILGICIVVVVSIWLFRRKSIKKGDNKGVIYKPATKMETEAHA

MDA-MB-231 cells [4] = experiment: Cell cycle analysis, PI flow cytometry; assay type: cell-based; conditions: 16.13 µM, 48 h
MDA-MB-231 cells [5] = experiment: qRT-PCR of apoptotic markers in MDA-MB-231 cells; conditions: 16.13 µM, 72 h, control set to 1, mean ± SEM
Procedure: Quantitative Reverse Transcription-Poly¬merase Chain Reaction (qRT-PCR) Analysis
Cells were seeded in T-25 cm2 tissue culture flasks 24h before treatment with DMSO vehicle (0.01%) or
Total RNA was extracted, reverse transcribed, and assayed
for BAX, Bcl-2, caspases-8, and caspases-9 genes expression by quantitative RT-PCR. ß-actin serves as the
housekeeping gene. The quantity of BAX, Bcl-2, Caspase-8 and Caspase-9 mRNA in control and compound
Total RNA from vehicle-treated control
(0.01% DMSO) and 14-treated MDA-231 cells were extracted as-per the manufacturer instructi¬ons (RNeasy
mini kit, Qiagen, Germany). After RNA extraction, cDNA was prepared using the Revert Aid First Strand
cDNA Synthesis kit (Thermo Scientific, USA). Amplification of target cDNA for apoptosis markers and ß-
actin [as a normalization (housekeeping) gene] was done using one-step RT-PCR SYBR® Green kit Master Mix (Bio‐Rad Laboratories, USA) on Rotor-Gene Q real-time PCR thermal cycler instrument. cDNA (2 μl
aliquots) was mixed with 1 μl of forward primer, 1 μl reverse primer (Table below), 10 μl master mixture,
and the reaction volume was completed to 20 μl with nuclease-free water. All experiments were performed in

MDA-MB-231 cells [6] = experiment: Apoptosis analysis, Annexin V-FITC/PI flow cytometry
Procedure: Apoptosis detection was carried out using Annexin V fluorescein isothiocyanate (V-FITC)/PI kit according to the reported procedures. MDA-MB-231cells cells were seeded and incubated for 24 h, then treated with
The cells were then collected, washed 3 times with PBS, fixed with ice-
cold absolute ethanol (70%) and stained with Annexin-V-FITC/propidium iodide (PI) using a double staining
kit for 20 min in the dark. Epics XL-MCL™ Flow Cytometer was used to evaluate the apoptosis.

EGFR [7] = biological target: T1, EGFR; parameters: method as in PMID 35896557; conditions: read-out: EGFR inhibition IC50; cited from earlier work
T-47D = system: T-47D; parameters: method as in PMID 35896557; conditions: read-out: anti-proliferative IC50, T-47D; cited from earlier work
MDA-MB-231 = system: MDA-MB-231; parameters: method as in PMID 35896557; conditions: read-out: anti-proliferative IC50, MDA-MB-231; cited from earlier work
MDA-MB-231 cells [8] = system: MDA-MB-231 cells; parameters: method as in PMID 35896557; conditions: cited from earlier work

In the case of `CC(=O)Nc1nnc(S(N)(=O)=O)s1` [Acetazolamide, reference compound], the IC50 at 24 h [1] is reported as 77.57 ± 0.57 µM, the IC50 (MCF-7 cells) is reported as 7.26 ± 0.3 µM and the IC50 (MDA-MB-231 cells [2]) is reported as 7.64 ± 0.4 µM.
In the case of `CCOC(=O)c1nn(-c2ccc(S(N)(=O)=O)cc2)/c(=N/N=C(\C)c2ccc(NC(C)=O)cc2)s1` [Compound 14, Ethyl (Z)-5-(((E)-1-(4-acetamidophenyl)ethylidene)hydrazineylidene)-4-(4-sulfamoylphenyl)-4,5-dihydro-1,3,4-thiadiazole-2-carboxylate], the IC50 (EGFR [3]) is reported as 10.1 ± 0.29 nM, the IC50 (hCA_IX) is reported as 79 ± 0.3 nM and the IC50 (hCA_XII) is reported as 58 ± 0.3 nM. For the same molecule, the IC50 at 24 h [1] was 148.3 ± 1.22 µM, the “Cell cycle distribution (%) % G2/M” value (MDA-MB-231 cells [4]; untreated 10.59) was 7.94% and the “Cell cycle distribution (%) %Sub-G1” value (MDA-MB-231 cells [4]; untreated 19.48) was 19.18%. For the same molecule, the “Cell cycle distribution (%) %S” value (MDA-MB-231 cells [4]; untreated 24.95) was 23.78%, the “Cell cycle distribution (%) %G1” value (MDA-MB-231 cells [4]; untreated 44.98) was 49.10% and the “Average of Relative viability of cells (%) MCF-7” value (MCF-7 cells; 1.56 µM) was 100%. For the same molecule, the “Average of Relative viability of cells (%) MCF-7” value (MCF-7 cells; 3.125 µM) was 90.3%, the “Average of Relative viability of cells (%) MCF-7” value (MCF-7 cells; 6.25 µM) was 71.7% and the “Average of Relative viability of cells (%) MCF-7” value (MCF-7 cells; 12.5 µM) was 57.6%. For the same molecule, the “Average of Relative viability of cells (%) MCF-7” value (MCF-7 cells; 25 µM) was 46.5%, the “Average of Relative viability of cells (%) MCF-7” value (MCF-7 cells; 50 µM) was 35.1% and the “Average of Relative viability of cells (%) MCF-7” value (MCF-7 cells; 100 µM) was 24.4%. For the same molecule, the IC50 (MCF-7 cells) was 22.6 ± 1.5 µM, the “Average of Relative viability of cells (%) MDA-231” value (MDA-MB-231 cells [2]; 1.56 µM) was 100% and the “Average of Relative viability of cells (%) MDA-231” value (MDA-MB-231 cells [2]; 3.125 µM) was 86.3%. For the same molecule, the “Average of Relative viability of cells (%) MDA-231” value (MDA-MB-231 cells [2]; 6.25 µM) was 69.9%, the “Average of Relative viability of cells (%) MDA-231” value (MDA-MB-231 cells [2]; 12.5 µM) was 51.0% and the “Average of Relative viability of cells (%) MDA-231” value (MDA-MB-231 cells [2]; 25 µM) was 38.6%. For the same molecule, the “Average of Relative viability of cells (%) MDA-231” value (MDA-MB-231 cells [2]; 50 µM) was 26.1%, the “Average of Relative viability of cells (%) MDA-231” value (MDA-MB-231 cells [2]; 100 µM) was 18.5% and the IC50 (MDA-MB-231 cells [2]) was 16.1 ± 1.2 µM. For the same molecule, the “Gene expression (Fold Change) BAX” value (MDA-MB-231 cells [5]) was 3.06 ± 0.18 Fold Change, the “Gene expression (Fold Change) BAX/Bcl-2 ratio” value (MDA-MB-231 cells [5]) was 5.56 ± 0.69 Fold Change and the “Gene expression (Fold Change) Bcl-2” value (MDA-MB-231 cells [5]) was 0.55 ± 0.05 Fold Change. For the same molecule, the “Gene expression (Fold Change) Caspases-8” value (MDA-MB-231 cells [5]) was 2.37 ± 0.07 Fold Change, the “Gene expression (Fold Change) Caspases-9” value (MDA-MB-231 cells [5]) was 2.26 ± 0.15 Fold Change and the “Apoptosis Late” value (MDA-MB-231 cells [6]; 16.13 µM, 48 h, MDA-MB-231, untreated 0.32) was 58.27%. The Necrosis (MDA-MB-231 cells [6]; 16.13 µM, 48 h, MDA-MB-231, untreated 0.45) was 0.03%, the “Apoptosis Early” value (MDA-MB-231 cells [6]; 16.13 µM, 48 h, MDA-MB-231, untreated 3.84) was 22.50% and the viability at 16.13 µM (MDA-MB-231 cells [6]; Homo sapiens, MDA-MB-231, 48 h, read-out: Viable cells) was 19.2%.
In the case of `COc1ccc(/C=C2/SC(N3N=C(c4cccc5ccccc45)CC3c3ccc(F)cc3)=NC2=O)cc1O` (centres unmarked) [compound III], the IC50 (EGFR [7]) is given as 0.267 µM, the IC50 (T-47D) is given as 0.62 µM and the IC50 (MDA-MB-231) is given as 3.14 µM. The apoptosis induction (MDA-MB-231 cells [8]) was “induced apoptosis” and the “cell cycle arrest phase” value (MDA-MB-231 cells [8]) was “G2/M phase”.
